{"source": "ChEMBL document CHEMBL1124151", "about": "“21-[18F]fluoro-16 alpha-ethyl-19-norprogesterone: synthesis and target tissue selective uptake of a progestin receptor based radiotracer for positron emission tomography” (J Med Chem, 1988)", "key": {"Rattus norvegicus [1]": {"system": "Rattus norvegicus", "assay": "Distribution in uterus/muscle of in estrogen-primed immature rats after 1 hour iv administration (13 microCi)", "details": "in vivo"}, "Rattus norvegicus [2]": {"system": "Rattus norvegicus", "assay": "Distribution in uterus of estrogen-primed immature rats after 1 hour iv administration (120 microCi)", "details": "in vivo"}, "Rattus norvegicus [3]": {"system": "Rattus norvegicus", "assay": "Distribution in kidney of estrogen-primed immature blocked rats after 1 hour iv administration (~/= 17 microg)", "details": "in vivo"}, "Rattus norvegicus [4]": {"system": "Rattus norvegicus", "assay": "Distribution in brain of estrogen-primed immature rats after 1 hour iv administration (13 microCi)", "details": "in vivo"}, "Rattus norvegicus [5]": {"system": "Rattus norvegicus", "assay": "Distribution in uterus/muscle of in estrogen-primed immature rats after 1 hour iv administration (120 microCi)", "details": "in vivo"}, "Rattus norvegicus [6]": {"system": "Rattus norvegicus", "assay": "Distribution in blood of estrogen-primed immature rats after 3 hour iv administration (120 micro Ci)", "details": "in vivo"}, "Rattus norvegicus [7]": {"system": "Rattus norvegicus", "assay": "Distribution in lungs of estrogen-primed immature blocked rats after 1 hour iv administration (~/= 17 microg)", "details": "in vivo"}, "Rattus norvegicus [8]": {"system": "Rattus norvegicus", "assay": "Distribution in uterus of estrogen-primed immature blocked rats after 1 hour iv administration (~/= 17 microg)", "details": "in vivo"}, "Rattus norvegicus [9]": {"system": "Rattus norvegicus", "assay": "Distribution in brain of estrogen-primed immature blocked rats after 1 hour iv administration (~/= 17 microg)", "details": "in vivo"}, "Rattus norvegicus [10]": {"system": "Rattus norvegicus", "assay": "Distribution in kidney of estrogen-primed immature rats after 1 hour iv administration (120 microCi)", "details": "in vivo"}, "Rattus norvegicus [11]": {"system": "Rattus norvegicus", "assay": "Distribution in uterus/muscle of estrogen-primed immature blocked rats after 1 hour iv administration (~/= 17 microg)", "details": "in vivo"}, "Rattus norvegicus [12]": {"system": "Rattus norvegicus", "assay": "Distribution in fat of iestrogen-primed immature rats after 1 hour iv administration (13 microCi)", "details": "in vivo"}, "Rattus norvegicus [13]": {"system": "Rattus norvegicus", "assay": "Distribution in bone of iestrogen-primed immature blocked rats after 1 hour iv administration (~/= 17 microg)", "details": "in vivo"}, "Rattus norvegicus [14]": {"system": "Rattus norvegicus", "assay": "Distribution in bone of estrogen-primed immature rats after 3 hour iv administration (120 micro Ci)", "details": "in vivo"}, "Rattus norvegicus [15]": {"system": "Rattus norvegicus", "assay": "Distribution in uterus/blood of estrogen-primed immature rats after 3 hour iv administration (120 micro Ci)", "details": "in vivo"}, "Rattus norvegicus [16]": {"system": "Rattus norvegicus", "assay": "Distribution in muscle of iestrogen-primed immature rats after 1 hour iv administration (120 microCi)", "details": "in vivo"}, "Rattus norvegicus [17]": {"system": "Rattus norvegicus", "assay": "Distribution in uterus/blood of in estrogen-primed immature rats after 1 hour iv administration (13 microCi)", "details": "other tissue"}, "Rattus norvegicus [18]": {"system": "Rattus norvegicus", "assay": "Distribution in brain of estrogen-primed immature rats after 3 hour iv administration (120 micro Ci)", "details": "in vivo"}, "Rattus norvegicus [19]": {"system": "Rattus norvegicus", "assay": "Distribution in blood of estrogen-primed immature blocked rats after 1 hour iv administration (~/= 17 microg)", "details": "in vivo"}, "Rattus norvegicus [20]": {"system": "Rattus norvegicus", "assay": "Distribution in liver of estrogen-primed immature rats after 3 hour iv administration (120 micro Ci)", "details": "in vivo"}, "Rattus norvegicus [21]": {"system": "Rattus norvegicus", "assay": "Distribution in ovaries of estrogen-primed immature blocked rats after 1 hour iv administration (~/= 17 microg)", "details": "in vivo"}, "Rattus norvegicus [22]": {"system": "Rattus norvegicus", "assay": "Distribution in blood of estrogen-primed immature rats after 1 hour iv administration (120 microCi)", "details": "in vivo"}, "Rattus norvegicus [23]": {"system": "Rattus norvegicus", "assay": "Distribution in fat of estrogen-primed immature rats after 3 hour iv administration (120 micro Ci)", "details": "in vivo"}, "Rattus norvegicus [24]": {"system": "Rattus norvegicus", "assay": "Distribution in kidney of estrogen-primed immature rats after 1 hour iv administration (13 microCi)", "details": "in vivo"}, "Rattus norvegicus [25]": {"system": "Rattus norvegicus", "assay": "Distribution in bone of iestrogen-primed immature rats after 1 hour iv administration (13 microCi)", "details": "in vivo"}, "Rattus norvegicus [26]": {"system": "Rattus norvegicus", "assay": "Distribution in muscle of iestrogen-primed immature blocked rats after 1 hour iv administration (~/= 17 microg)", "details": "in vivo"}, "Rattus norvegicus [27]": {"system": "Rattus norvegicus", "assay": "Distribution in lungs of estrogen-primed immature rats after 3 hour iv administration (120 micro Ci)", "details": "in vivo"}, "Rattus norvegicus [28]": {"system": "Rattus norvegicus", "assay": "Distribution in uterus/muscle of estrogen-primed immature rats after 3 hour iv administration (120 micro Ci)", "details": "in vivo"}, "Rattus norvegicus [29]": {"system": "Rattus norvegicus", "assay": "Distribution in bone of iestrogen-primed immature rats after 1 hour iv administration (120 microCi)", "details": "in vivo"}, "Rattus norvegicus [30]": {"system": "Rattus norvegicus", "assay": "Distribution in liver of estrogen-primed immature rats after 1 hour iv administration (13 microCi)", "details": "in vivo"}, "Rattus norvegicus [31]": {"system": "Rattus norvegicus", "assay": "Distribution in liver of estrogen-primed immature blocked rats after 1 hour iv administration (~/= 17 microg)", "details": "in vivo"}, "Rattus norvegicus [32]": {"system": "Rattus norvegicus", "assay": "Distribution in muscle of iestrogen-primed immature rats after 1 hour iv administration (13 microCi)", "details": "in vivo"}, "Rattus norvegicus [33]": {"system": "Rattus norvegicus", "assay": "Distribution in fat of iestrogen-primed immature blocked rats after 1 hour iv administration (~/= 17 microg)", "details": "in vivo"}, "Rattus norvegicus [34]": {"system": "Rattus norvegicus", "assay": "Distribution in brain of estrogen-primed immature rats after 1 hour iv administration (120 microCi)", "details": "in vivo"}, "Rattus norvegicus [35]": {"system": "Rattus norvegicus", "assay": "Distribution in uterus of in estrogen-primed immature rats after 3 hour iv administration", "details": "in vivo"}, "Rattus norvegicus [36]": {"system": "Rattus norvegicus", "assay": "Distribution in lungs of estrogen-primed immature rats after 1 hour iv administration (120 microCi)", "details": "in vivo"}, "Rattus norvegicus [37]": {"system": "Rattus norvegicus", "assay": "Distribution in blood of estrogen-primed immature rats after 1 hour iv administration (13 microCi)", "details": "in vivo"}, "Rattus norvegicus [38]": {"system": "Rattus norvegicus", "assay": "Distribution in liver of estrogen-primed immature rats after 1 hour iv administration (120 microCi)", "details": "in vivo"}, "Rattus norvegicus [39]": {"system": "Rattus norvegicus", "assay": "Distribution in uterus of in estrogen-primed immature rats after 1 hour iv administration (13 microCi)", "details": "in vivo"}, "Rattus norvegicus [40]": {"system": "Rattus norvegicus", "assay": "Distribution in kidney of estrogen-primed immature rats after 3 hour iv administration (120 micro Ci)", "details": "in vivo"}, "Rattus norvegicus [41]": {"system": "Rattus norvegicus", "assay": "Distribution in muscle of iestrogen-primed immature rats after 3 hour iv administration (120 micro Ci)", "details": "in vivo"}, "Rattus norvegicus [42]": {"system": "Rattus norvegicus", "assay": "Distribution in ovaries of estrogen-primed immature rats after 1 hour iv administration (13 microCi)", "details": "in vivo"}, "Rattus norvegicus [43]": {"system": "Rattus norvegicus", "assay": "Distribution in lungs of estrogen-primed immature rats after 1 hour iv administration (13 microCi)", "details": "in vivo"}, "Rattus norvegicus [44]": {"system": "Rattus norvegicus", "assay": "Distribution in fat of iestrogen-primed immature rats after 1 hour iv administration", "details": "in vivo"}, "Rattus norvegicus [45]": {"system": "Rattus norvegicus", "assay": "Distribution in ovaries of estrogen-primed immature rats after 1 hour iv administration (120 microCi)", "details": "in vivo"}, "Rattus norvegicus [46]": {"system": "Rattus norvegicus", "assay": "Distribution in uterus/blood of estrogen-primed immature blocked rats after 1 hour iv administration (~/= 17 microg)", "details": "other tissue"}, "Rattus norvegicus [47]": {"system": "Rattus norvegicus", "assay": "Distribution in ovaries of estrogen-primed immature rats after 3 hour iv administration (120 micro Ci)", "details": "in vivo"}, "Rattus norvegicus [48]": {"system": "Rattus norvegicus", "assay": "Distribution in uterus/blood of in estrogen-primed immature rats after 1 hour iv administration (120 microCi)", "details": "other tissue"}}}
{"smiles": "CC[C@@H]1C[C@H]2[C@@H]3CCC4=CC(=O)CC[C@@H]4[C@H]3CC[C@]2(C)[C@H]1C(=O)C[18F]", "values": [{"measurement": "Distribution", "setting": "Rattus norvegicus [1]", "result": 11.06, "unit": "%"}, {"measurement": "Distribution", "setting": "Rattus norvegicus [2]", "result": 6.43, "unit": "%"}, {"measurement": "Distribution", "setting": "Rattus norvegicus [3]", "result": 0.58, "unit": "%"}, {"measurement": "Distribution", "setting": "Rattus norvegicus [4]", "result": 0.48, "unit": "%"}, {"measurement": "Distribution", "setting": "Rattus norvegicus [5]", "result": 15.98, "unit": "%"}, {"measurement": "Distribution", "setting": "Rattus norvegicus [6]", "result": 0.07, "unit": "%"}, {"measurement": "Distribution", "setting": "Rattus norvegicus [7]", "result": 0.3, "unit": "%"}, {"measurement": "Distribution", "setting": "Rattus norvegicus [8]", "result": 0.38, "unit": "%"}, {"measurement": "Distribution", "setting": "Rattus norvegicus [9]", "result": 0.32, "unit": "%"}, {"measurement": "Distribution", "setting": "Rattus norvegicus [10]", "result": 1.05, "unit": "%"}, {"measurement": "Distribution", "setting": "Rattus norvegicus [11]", "result": 1.59, "unit": "%"}, {"measurement": "Distribution", "setting": "Rattus norvegicus [12]", "result": 4.13, "unit": "%"}, {"measurement": "Distribution", "setting": "Rattus norvegicus [13]", "result": 3.09, "unit": "%"}, {"measurement": "Distribution", "setting": "Rattus norvegicus [14]", "result": 5.55, "unit": "%"}, {"measurement": "uterus/blood ratio", "setting": "Rattus norvegicus [15]", "result": 71.2}, {"measurement": "Distribution", "setting": "Rattus norvegicus [16]", "result": 0.42, "unit": "%"}, {"measurement": "Distribution", "setting": "Rattus norvegicus [17]", "result": 21.18, "unit": "%"}, {"measurement": "Distribution", "setting": "Rattus norvegicus [18]", "result": 0.14, "unit": "%"}, {"measurement": "Distribution", "setting": "Rattus norvegicus [19]", "result": 0.15, "unit": "%"}, {"measurement": "Distribution", "setting": "Rattus norvegicus [20]", "result": 1.01, "unit": "%"}, {"measurement": "Distribution", "setting": "Rattus norvegicus [21]", "result": 1, "unit": "%"}, {"measurement": "Distribution", "setting": "Rattus norvegicus [22]", "result": 0.25, "unit": "%"}, {"measurement": "Distribution", "setting": "Rattus norvegicus [23]", "result": 2.78, "unit": "%"}, {"measurement": "Distribution", "setting": "Rattus norvegicus [24]", "result": 0.86, "unit": "%"}, {"measurement": "Distribution", "setting": "Rattus norvegicus [25]", "result": 3.06, "unit": "%"}, {"measurement": "Distribution", "setting": "Rattus norvegicus [26]", "result": 0.25, "unit": "%"}, {"measurement": "Distribution", "setting": "Rattus norvegicus [27]", "result": 0.12, "unit": "%"}, {"measurement": "Distribution", "setting": "Rattus norvegicus [28]", "result": 41.16, "unit": "%"}, {"measurement": "Distribution", "setting": "Rattus norvegicus [29]", "result": 3.18, "unit": "%"}, {"measurement": "Distribution", "setting": "Rattus norvegicus [30]", "result": 2.59, "unit": "%"}, {"measurement": "Distribution", "setting": "Rattus norvegicus [31]", "result": 2.09, "unit": "%"}, {"measurement": "Distribution", "setting": "Rattus norvegicus [32]", "result": 0.39, "unit": "%"}, {"measurement": "Distribution", "setting": "Rattus norvegicus [33]", "result": 2.9, "unit": "%"}, {"measurement": "Distribution", "setting": "Rattus norvegicus [34]", "result": 0.63, "unit": "%"}, {"measurement": "Distribution", "setting": "Rattus norvegicus [35]", "result": 4.63, "unit": "%"}, {"measurement": "Distribution", "setting": "Rattus norvegicus [36]", "result": 0.47, "unit": "%"}, {"measurement": "Distribution", "setting": "Rattus norvegicus [37]", "result": 0.19, "unit": "%"}, {"measurement": "Distribution", "setting": "Rattus norvegicus [38]", "result": 3.34, "unit": "%"}, {"measurement": "Distribution", "setting": "Rattus norvegicus [39]", "result": 4.03, "unit": "%"}, {"measurement": "Distribution", "setting": "Rattus norvegicus [40]", "result": 0.33, "unit": "%"}, {"measurement": "Distribution", "setting": "Rattus norvegicus [41]", "result": 0.12, "unit": "%"}, {"measurement": "Distribution", "setting": "Rattus norvegicus [42]", "result": 2.37, "unit": "%"}, {"measurement": "Distribution", "setting": "Rattus norvegicus [43]", "result": 0.57, "unit": "%"}, {"measurement": "Distribution", "setting": "Rattus norvegicus [44]", "result": 3.56, "unit": "%"}, {"measurement": "Distribution", "setting": "Rattus norvegicus [45]", "result": 2.86, "unit": "%"}, {"measurement": "uterus/blood ratio", "setting": "Rattus norvegicus [46]", "result": 2.53}, {"measurement": "Distribution", "setting": "Rattus norvegicus [47]", "result": 1.72, "unit": "%"}, {"measurement": "Distribution", "setting": "Rattus norvegicus [48]", "result": 26.26, "unit": "%"}]}
